According to patent publication US20230165846A1, “HETEROCYCLIC GLP-1 AGONISTS” (Gasherbrum Bio, Inc., priority 2020, published 2023):

Key:
GLP-1 Receptor [1] = target: T1, GLP-1 Receptor (Homo sapiens, UniProt P43220); experiment: GLP-1R agonist cAMP stimulation assay, Method 1 (DiscoverX CHO-K1, enzyme fragment complementation); assay type: cell-based; conditions: CHO-K1 cell line (DiscoverX) stably expressing GLP-1 Receptor; incubation 30 or 60 min at 37° C.; geometric mean where n>=2; read-out: GLP1R cAMP Stimulation DR: EC50 (nM) Method 1
Experimental: Activation of GLP-1 receptor is known to stimulate cyclic AMP (cAMP) production in cells which indicates primary coupling to the Gas subunit of the G protein heterotrimeric complex.
Method 1: To optimize functional activity directed toward Gas coupling, a CHO—K1 cell line developed by DiscoverX stably expressing the GLP-1 Receptor was used. Cells expressing GLP-1 receptor were plated in a 384-well microtiter plates and incubated overnight at 37° C. with 5% CO2 to allow the cells to attach and grow. Media was then aspirated from the cells and replaced with 15 uL 2:1 Hanks Balanced Salt Solution (HBSS)/10mM Hepes : cAMP XS+ Ab reagent. Five microliters (5 uL) of previously generated compound sample stocks at 4x final concentration in assay buffer were then added to the cells and allowed to incubate at 37° C. for 30 or 60 minutes.
After incubation the assay signal was generated using enzyme fragment complementation (EFC). In EFC, the enzyme B-galactosidase is split into two complementary portions (EA and ED). The fragment ED is fused to cAMP and in the assay format competes with endogenous cAMP for binding to a cAMP specific antibody. Activated β—Gal is formed when exogenous EA fragment binds to free ED-cAMP (not bound to cAMP specific antibody). Activated enzyme levels are detected through conversion of β-gal chemiluminescent substrate which generates a detectable luminescence signal and read on standard microtiter plate.
The methodology for detection of cAMP using EFC requires incubation with 20uL of cAMP XS+ ED/CL lysis cocktail for one hour followed by incubation with 20 uL cAMP XS+ EA reagent for three hours at room temperature. Microplates were read following signal generation with a PerkinElmer Envision instrument utilizing chemiluminescent signal detection. Compound activity was analyzed using CBIS data analysis suite (ChemInnovation, CA). Percentage activity was calculated using the following formula:
(§1) %Activity = 100% x (mean RLU of test sample - mean RLU of vehicle control) / (mean RLU of MAX control - mean RLU of vehicle control))
(§2) This is done to account for the lognormal distribution of multiple estimates of EC50 values. In practice geometric mean is calculated by first generating log values of EC50, averaging replicates and then calculating the antilog of the average.

GLP-1 Receptor [2] = target: T1, GLP-1 Receptor; experiment: GLP-1R agonist cAMP stimulation assay, Method 2 (HDB HEK293/GLP1R/CRE-LUC, Cisbio cAMP dynamic 2 kit); assay type: cell-based; conditions: HEK293/GLP1R/CRE-LUC cells (HD Biosciences); 30 min at 37° C.; 0.5 mM IBMX, 0.1% BSA; geometric mean where n>=2; read-out: GLP1R cAMP Stimulation DR: EC50 (nM) Method 2 (HDB)
Experimental: Method 2: Activation of GLP-1 receptor is known to stimulate cyclic AMP (cAMP) production in cells which indicates primary coupling to the Gas subunit of the G protein heterotrimeric complex.
To optimize functional activity directed toward Gas coupling, a HEK293/CRE-Luc cell line developed by HDB stably expressing the GLP-1 Receptor was used. 200× concentration of compound working solutions were prepared (Agilent Technologies Bravo) with ½log serial dilution in 384-well Echo LDV plate (Labcyte, Cat# LP-0200). […] Seal the plate and incubate at 37° C. with 5% CO2 for 30 min.
After incubation the cAMP assay signal was generated using cAMP dynamic 2 Kit (Cisbio). 5 µL cAMP-d2 working solution was added to each well, followed with 5 µL Anti-cAMP antibody-cryptate working solution added to each well using ThermoFisher Multidrop Combi. Incubate at room temperature for 1 hour protected from light.
as §1, §2

T1 sequence (P43220 24-463): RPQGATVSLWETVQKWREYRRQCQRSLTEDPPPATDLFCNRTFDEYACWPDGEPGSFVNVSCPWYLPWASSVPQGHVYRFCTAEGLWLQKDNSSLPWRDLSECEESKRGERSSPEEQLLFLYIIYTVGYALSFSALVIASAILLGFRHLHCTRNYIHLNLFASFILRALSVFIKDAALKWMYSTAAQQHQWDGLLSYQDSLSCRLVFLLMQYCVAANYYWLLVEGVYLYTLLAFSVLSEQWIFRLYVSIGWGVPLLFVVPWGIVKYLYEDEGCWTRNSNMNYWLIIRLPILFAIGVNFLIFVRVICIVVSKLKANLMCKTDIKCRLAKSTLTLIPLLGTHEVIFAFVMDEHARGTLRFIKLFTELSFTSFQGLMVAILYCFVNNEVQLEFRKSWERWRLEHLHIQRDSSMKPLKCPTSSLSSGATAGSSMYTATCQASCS

SMILES	EC50 (GLP-1 Receptor [1])	EC50 (GLP-1 Receptor [2])
O=C(O)c1ccc2nc(CC3CC=C(c4nccc(OCc5ccc(Cl)cc5F)n4)CC3)n(C[C@@H]3CCO3)c2n1 (stereo partly drawn) [Compound 103a, 2-((4-(4-((4-chloro-2-fluorobenzyl)oxy)pyrimidin-2-yl)cyclohex-3-en-1-yl)methyl)-3-(((S)-oxetan-2-yl)methyl)-3H-imidazo[4,5-b]pyridine-5-carboxylic acid]	0.073 nM	0.095 nM
Cc1c(-c2cccc(OCc3ccc(Cl)cc3F)n2)ccn(Cc2nc3ccc(C(=O)O)nc3n2C[C@@H]2CCO2)c1=O [Compound 105aw, (S)-2-((6-((4-chloro-2-fluorobenzyl)oxy)-3′-methyl-2′-oxo-[2,4′-bipyridin]-1′(2′H)-yl)methyl)-3-(oxetan-2-ylmethyl)-3H-imidazo[4,5-b]pyridine-5-carboxylic acid]	11 nM	7.1 nM
O=C(O)c1ccc2nc(COc3cc(-c4cccc(OCc5ccc(Cl)cc5F)n4)c(F)cn3)n(C[C@@H]3CCO3)c2n1 [Compound 109aw, (S)-2-(((6-((4-chloro-2-fluorobenzyl)oxy)-5′-fluoro-[2,4′-bipyridin]-2′-yl)oxy)methyl)-3-(oxetan-2-ylmethyl)-3H-imidazo[4,5-b]pyridine-5-carboxylic acid]	4.8 nM	10 nM
O=C(O)c1ccc2nc(CN3CC=C(c4cccc(OCc5ccc(Cl)cc5F)n4)CC3)n(C[C@@H]3CCO3)c2n1 [Compound 110a, (S)-2-((6-((4-chloro-2-fluorobenzyl)oxy)-3′,6′-dihydro-[2,4′-bipyridin]-1′(2′H)-yl)methyl)-3-(oxetan-2-ylmethyl)-3H-imidazo[4,5-b]pyridine-5-carboxylic acid]	< 0.051 nM	0.0074 nM
O=C(O)c1ccc2nc(Cn3ccc(-c4cccc(OCc5ccc(Cl)cc5F)n4)cc3=O)n(C[C@@H]3CCO3)c2c1 [Compound 107aw, 2-[[4-[6-[(4-chloro-2-fluorophenyl)methoxy]-2-pyridyl]-2-oxo-1-pyridyl]methyl]-3-[[(2S)-oxetan-2-yl]methyl]benzimidazole-5-carboxylic acid]	0.28 nM	0.19 nM
O=C(O)c1ccc2nc(COc3cc(-c4cccc(OCc5ccc(Cl)cc5F)c4)ccn3)n(C[C@@H]3CCO3)c2n1 [Compound 110aw, 2-[[4-[3-[(4-chloro-2-fluoro-phenyl)methoxy]phenyl]-2-pyridyl]oxymethyl]-3-[[(2S)-oxetan-2-yl]methyl]imidazo[4,5-b]pyridine-5-carboxylic acid]	43 nM	88 nM
O=C(O)c1ccc2nc(CC3CC=C(c4ccnc(OCc5ccc(Cl)cc5F)n4)CC3)n(C[C@@H]3CCO3)c2n1 (stereo partly drawn) [Compound 104a, 2-((4-(2-((4-chloro-2-fluorobenzyl)oxy)pyrimidin-4-yl)cyclohex-3-en-1-yl)methyl)-3-(((S)-oxetan-2-yl)methyl)-3H-imidazo[4,5-b]pyridine-5-carboxylic acid]	0.114 nM	0.12 nM
Cc1cn(Cc2nc3ccc(C(=O)O)nc3n2C[C@@H]2CCO2)c(=O)cc1-c1cccc(OCc2ccc(Cl)cc2F)n1 [Compound 104aw, (S)-2-((6-((4-chloro-2-fluorobenzyl)oxy)-5′-methyl-2′-oxo-[2,4′-bipyridin]-1′(2′H)-yl)methyl)-3-(oxetan-2-ylmethyl)-3H-imidazo[4,5-b]pyridine-5-carboxylic acid]	0.17 nM	0.13 nM
